Data on one compound can be found in article PMC4125815, “Crystal structure of tRNA m^1A58 methyltransferase TrmI from Aquifex aeolicus in complex with S-adenosyl-L-methionine” (Journal of Structural and Functional Genomics, 2014).

This assay concerns the target T1, A. aeolicus TrmI (Aquifex aeolicus, UniProt O66653).
T1 construct: gene aq_311
The assay is described as follows: X-ray crystal structure of the complex, […] Å. In kind it is binding. Conditions: co-crystallised with 2 mM AdoMet, pH 8.4, 20 °C; methyl donor site in C-terminal domain, 4 AdoMet per tetramer.

T1 sequence (O66653 1-248): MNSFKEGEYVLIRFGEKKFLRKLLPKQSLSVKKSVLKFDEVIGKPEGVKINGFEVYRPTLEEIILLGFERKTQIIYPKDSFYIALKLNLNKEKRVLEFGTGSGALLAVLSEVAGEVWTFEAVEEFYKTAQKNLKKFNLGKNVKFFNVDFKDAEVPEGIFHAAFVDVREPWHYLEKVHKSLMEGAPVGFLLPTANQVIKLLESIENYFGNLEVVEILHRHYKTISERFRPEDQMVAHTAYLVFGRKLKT

Take `C[S+](CC[C@H](N)C(=O)O)C[C@H]1O[C@@H](n2cnc3c(N)ncnc32)[C@H](O)[C@@H]1O` (stereo partly shown) [AdoMet]: the “X-ray crystal structure of the complex, 2.2 Å” value is “The methyl donor AdoMet is bound in the C-terminal domain of the protein”.
